{"source": "patent US7939518B2", "about": "“Method of treating post-surgical acute pain” (Aaipharma Inc., priority 2008, dated 2011)", "origin": "cited, not measured here", "tested_on": "cyclo-oxygenase", "data": [{"smiles": "O=C(O)Cc1ccccc1Nc1c(Cl)cccc1Cl", "note": "[Diclofenac]", "values": [{"measurement": "Concentrations at which cyclo-oxygenase is inhibited", "value": "micromolar concentrations"}]}]}
